Test results taken from ChEMBL document CHEMBL4732174, “Discovery of 6-(7-Nitro-2,1,3-benzoxadiazol-4-ylthio)hexanol Derivatives as Glutathione Transferase Inhibitors with Favorable Selectivity and Tolerated Toxicity” (J Med Chem, 2021).

Key:
[1] = molecular target: T1, Glutathione S-transferase Mu 2 (Homo sapiens, UniProt P28161); assay: Inhibition of GSTM2-2 (unknown origin) using reduced GSH and CDNB as substrate incubated for 10 mins followed by substrate addition by microplate reader analysis
T1 sequence (P28161 whole entry): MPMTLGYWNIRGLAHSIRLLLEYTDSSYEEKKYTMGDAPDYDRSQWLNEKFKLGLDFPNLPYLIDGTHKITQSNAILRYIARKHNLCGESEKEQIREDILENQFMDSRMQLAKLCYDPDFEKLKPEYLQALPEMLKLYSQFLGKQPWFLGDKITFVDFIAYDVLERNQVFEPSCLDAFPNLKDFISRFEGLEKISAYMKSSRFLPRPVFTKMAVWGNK

[2] = molecular target: Glutathione S-transferase P (Homo sapiens, UniProt P09211); assay: Inhibition of GSTP1-1 (unknown origin) using reduced GSH and CDNB as substrate incubated for 10 mins followed by substrate addition by microplate reader analysis
Sequence of Glutathione S-transferase P (P09211 whole entry): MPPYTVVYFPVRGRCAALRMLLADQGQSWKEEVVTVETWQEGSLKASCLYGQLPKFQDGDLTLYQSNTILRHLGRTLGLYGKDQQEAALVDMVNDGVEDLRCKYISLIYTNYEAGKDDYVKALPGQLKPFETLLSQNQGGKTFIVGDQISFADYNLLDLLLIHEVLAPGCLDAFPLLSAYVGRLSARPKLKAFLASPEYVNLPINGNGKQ

[3] = system: L02; assay: Cytotoxicity against human L02 cells assessed as reduction in cell viability incubated for 72 hrs by MTT assay; type: cell-based; settings: L02, 72 h
[4] = system: HUVEC; assay: Cytotoxicity against HUVEC assessed as reduction in cell viability incubated for 72 hrs by MTT assay; type: cell-based; settings: Homo sapiens
[5] = Antiproliferative activity against […] B16 cells assessed as inhibition of cell proliferation incubated for 72 hrs by MTT assay; type: functional, cell-based; settings: B16, 72 h
[6] = system: A549; assay: Antiproliferative activity against human A549 cells assessed as inhibition of cell proliferation incubated for 72 hrs by MTT assay; type: functional, cell-based; settings: A549, 72 h
[7] = system: 143B; assay: Antiproliferative activity against human 143B cells assessed as inhibition of cell proliferation incubated for 72 hrs by MTT assay; type: functional, cell-based
[8] = system: HOS; assay: Antiproliferative activity against human HOS cells assessed as inhibition of cell proliferation incubated for 72 hrs by MTT assay; type: functional, cell-based
[9] = Water solubility of the compound measured by UV-Visible spectral analysis; type: physicochemical; settings: buffer
[10] = system: 143B; assay: Antitumor activity against human 143B cells xenografted in BALB/c nude mouse assessed as tumor growth inhibition at 5 mg/kg, po administered once daily for 28 consecutive days relative to control; type: functional; settings: 672 h, time 28 day, read-out: TGI

Row | SMILES | IC50 [1] | IC50 [2] | IC50 [3] | IC50 [4] | IC50 [5] | IC50 [6] | IC50 [7] | IC50 [8] | solubility [9] | inhibition in vivo at 5 mg/kg [10]
1 | Cc1ccccc1NC(=O)CCC(=O)OCCCCCCSc1ccc([N+](=O)[O-])c2nonc12 | 0.44 µM | 4.1 µM | 9.49 µM | 1.41 µM | 6.49 µM | 4.2 µM | 4.66 µM | 4.02 µM | – | –
2 | COc1ccccc1NC(=O)CCC(=O)OCCCCCCSc1ccc([N+](=O)[O-])c2nonc12 | 0.28 µM | 4.05 µM | 4.49 µM | 1.61 µM | 1.38 µM | 1.87 µM | 2.12 µM | 2.85 µM | – | –
3 | O=C(CCC(=O)OCCCCCCSc1ccc([N+](=O)[O-])c2nonc12)Nc1ccccc1Cl | 0.33 µM | 15.5 µM | 5.85 µM | 2.95 µM | 2.39 µM | 2.75 µM | 2.43 µM | – | – | –
4 | O=C(CCC(=O)OCCCCCCSc1ccc([N+](=O)[O-])c2nonc12)Nc1ccccc1F | 0.35 µM | 9.89 µM | 4.27 µM | 0.84 µM | 2.12 µM | 2.44 µM | 3.03 µM | 2.35 µM | – | –
5 | O=C(CCC(=O)OCCCCCCSc1ccc([N+](=O)[O-])c2nonc12)NCCN1CCCC1 | 0.2 µM | 0.46 µM | 6.58 µM | 6.07 µM | 3.5 µM | 3.24 µM | 5.58 µM | 3.3 µM | Soluble | –
6 | Cc1ccc(NC(=O)CCC(=O)OCCCCCCSc2ccc([N+](=O)[O-])c3nonc23)cc1 | 0.39 µM | 6.8 µM | 7.32 µM | 2.34 µM | 1.95 µM | 5.24 µM | 3.25 µM | 3.34 µM | – | –
7 | COc1ccc(NC(=O)CCC(=O)OCCCCCCSc2ccc([N+](=O)[O-])c3nonc23)cc1 | 0.13 µM | 0.42 µM | 8.17 µM | 1.59 µM | 2.87 µM | 6.48 µM | 3.06 µM | 1.8 µM | – | –
8 | COc1ccc(NC(=O)CCC(=O)OCCCCCCSc2ccc([N+](=O)[O-])c3nonc23)cc1OC | 0.36 µM | 6.47 µM | 4.1 µM | 0.87 µM | 2.35 µM | 3.89 µM | 2.77 µM | 1.39 µM | – | –
9 | CN(C)CCNC(=O)CCC(=O)OCCCCCCSc1ccc([N+](=O)[O-])c2nonc12 | 0.16 µM | 0.54 µM | 5.98 µM | 2.16 µM | 1.14 µM | 5.55 µM | 2.19 µM | 5.02 µM | Soluble | –
10 | O=[N+]([O-])c1ccc(SCCCCCCO)c2nonc12 | 0.02 µM | – | – | – | 1.35 µM | 2.88 µM | 4.08 µM | 1.24 µM | – | 38.6%
11 | O=C(CCC(=O)OCCCCCCSc1ccc([N+](=O)[O-])c2nonc12)NCCN1CCOCC1 | 0.1 µM | 35 µM | 3.01 µM | 1.07 µM | 1.8 µM | 2.15 µM | 2.82 µM | 1.81 µM | Soluble | –
12 | O=C(CCC(=O)OCCCCCCSc1ccc([N+](=O)[O-])c2nonc12)Nc1ccccc1 | 0.7 µM | 10.2 µM | 6.49 µM | 2.49 µM | 1.26 µM | 1.96 µM | 3.85 µM | 2.12 µM | – | –
13 | O=C(CCC(=O)OCCCCCCSc1ccc([N+](=O)[O-])c2nonc12)Nc1ccc(F)c(Cl)c1 | 0.47 µM | 9.85 µM | 4.57 µM | 2.32 µM | 4.17 µM | 3.21 µM | 2.99 µM | 2.8 µM | – | –
14 | O=C(CCC(=O)OCCCCCCSc1ccc([N+](=O)[O-])c2nonc12)Nc1ccc(C(F)(F)F)cc1 | 0.09 µM | 5.05 µM | 5.01 µM | 1.39 µM | 1.12 µM | 4.02 µM | 2.1 µM | 3.2 µM | – | –
15 | O=C(O)CCC(=O)OCCCCCCSc1ccc([N+](=O)[O-])c2nonc12 | 0.16 µM | 0.53 µM | 1.89 µM | 0.74 µM | 3.65 µM | 3.64 µM | 2.83 µM | 8.74 µM | – | –
16 | O=C(CCC(=O)OCCCCCCSc1ccc([N+](=O)[O-])c2nonc12)Nc1cccc(Cl)c1 | 1.1 µM | 28.8 µM | 6.93 µM | 1.09 µM | 3.11 µM | 5.29 µM | 2.89 µM | 1.92 µM | – | –
17 | O=C(CCC(=O)N1CCOCC1)OCCCCCCSc1ccc([N+](=O)[O-])c2nonc12 | 0.17 µM | 0.33 µM | 3.24 µM | 5.34 µM | 0.82 µM | 1.67 µM | 1.53 µM | 1.01 µM | – | –
18 | O=C(CCC(=O)OCCCCCCSc1ccc([N+](=O)[O-])c2nonc12)Nc1ccc(Br)cc1 | 32 µM | 5.09 µM | 4.33 µM | 1.61 µM | 2.64 µM | 3.34 µM | 2.71 µM | 2.16 µM | – | –
19 | CCN(CC)CCCNC(=O)CCC(=O)OCCCCCCSc1ccc([N+](=O)[O-])c2nonc12 | 0.44 µM | 9.55 µM | 6.77 µM | 2.95 µM | 2.94 µM | 2.57 µM | 3.44 µM | 9.06 µM | Soluble | –
20 | O=C(CCC(=O)OCCCCCCSc1ccc([N+](=O)[O-])c2nonc12)Nc1ccc(F)cc1 | 0.32 µM | 8.57 µM | 6.46 µM | 1.74 µM | 2.02 µM | 6.3 µM | 2.5 µM | 2.08 µM | – | –
21 | O=C(CCC(=O)N1CCCCC1)OCCCCCCSc1ccc([N+](=O)[O-])c2nonc12 | 0.11 µM | 0.5 µM | 3.97 µM | 1.99 µM | 0.86 µM | 2.51 µM | 1.9 µM | 1.79 µM | – | –
